The results in this text go back to PubChem BioAssay AID624472 (The Scripps Research Institute Molecular Screening Center, 2012).

This test addresses Monoacylglycerol lipase ABHD6 (Mus musculus) (UniProt Q8R2Y0). The test can be described thus: ABHD6 inhibition in mouse proteome, late-stage follow-up, selectivity assay for DAGLb inhibitor project, biochemical, gel-based competitive ABPP, fluorescence, enantiomers (AID 624472). The conditions noted are these: at 10 µM (top of the series).

The inhibition is the drop in the measured response relative to a control, in per cent.

Monoacylglycerol lipase ABHD6 (Mus musculus), sequence (Q8R2Y0 whole entry, looked up): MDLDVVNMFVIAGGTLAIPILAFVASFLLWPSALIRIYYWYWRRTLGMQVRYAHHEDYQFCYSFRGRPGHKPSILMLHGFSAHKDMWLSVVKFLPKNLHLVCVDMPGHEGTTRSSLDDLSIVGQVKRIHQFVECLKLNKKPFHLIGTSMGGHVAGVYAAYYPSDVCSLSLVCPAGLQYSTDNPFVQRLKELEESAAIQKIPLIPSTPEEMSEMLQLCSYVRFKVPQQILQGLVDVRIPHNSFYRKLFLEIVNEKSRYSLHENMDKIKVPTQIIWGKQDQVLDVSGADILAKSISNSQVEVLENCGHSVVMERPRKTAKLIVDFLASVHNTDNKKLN

The compound `O=C(N1CCCCC1Cc1ccccc1)n1cc(-c2ccc(Br)cc2)nn1` (stereo unspecified) showed an inhibition of 100%.
